Measured values reported in patent US6670351B1, “Method for ameliorating muscle weakness/wasting in a patient infected with human immunodeficiency virus-type 1” (Bio-Technology General Corporation, priority 1992, dated 2003).
Like-named read-outs stand apart in the source and are kept apart here.

Key:
[1] = test system: patients with uterine cervical cancer; conditions: administered parentally; cited from earlier work
[2] = test system: HIV-associated myopathy and muscle weakness/wasting; experiment: Case example: HIV-seropositive patient with HIV-associated myopathy and muscle weakness/wasting; type: in vivo, human; conditions: for return to previous levels of function and strength: trial after oxandrolone was no longer obtainable
From the text: A patient, a homosexual person, known to be HIV-seropositive since February 1989, noted difficulty opening drawers and bottles in May 1989. […] However, their muscle stretch reflexes remained normal.
They complained of an inability to ascend a flight of stairs. […] The patient's creatine kinase tested at 456 Units per liter. […] Round cell inflammatory infiltrates were also noted. In light of these developments, the zidovudine treatment was terminated.
Substantial improvement initially followed the discontinuation of zidovudine. However, because of a subsequent continued and progressive weakness rendering it difficult for the patient to ascend or descend a flight of stairs, a prednisone therapy (60 mg daily) was initiated.
Thereafter, a trial period of oral oxandrolone administration (2.5 milligrams, three times daily, in tablet form) was initiated. […] The patient's weight increased from 115 pounds to 130 pounds. The patient's muscle atrophy was alleviated as well.
After several months of the aforementioned therapy with oxandrolone, the patient was no longer able to obtain oxandrolone for use as a medication. Weakness and weight loss ensued.

acute uremic rats = conditions: cited from earlier work
chronic renal failure = conditions: cited from earlier work
[3] = cited from earlier work
[4] = published parameter; cited from earlier work
[5] = test system: patients with acute alcoholic hepatitis; conditions: cited from earlier work
[6] = oral 2.5 milligrams three times daily
[7] = man, oral 10 milligram dose, biphasic decline

CCCCCCCCCC(=O)O[C@H]1CC[C@H]2[C@@H]3CCC4=CC(=O)CC[C@@H]4[C@H]3CC[C@]12C [nandrolone decanonate]
macrophage activity and cell-mediated immunity [1]: enhanced macrophage activity and cell-mediated immunity

CC1(O)CC[C@H]2[C@@H]3CCC4CC(=O)OC[C@]4(C)[C@H]3CC[C@@]21C (stereo partly shown) [oxandrolone, 17-hydroxy-17-methyl-2-oxaandrostan-3-one]
ability to use stairs within one month [2, 6]: able to ascend and descend stairs without problems | muscle atrophy [2, 6]: alleviated | strength by confrontation testing [2, 6]: nearly normal strength | liver functions / side effects ([2]; oral 2.5 milligrams three times daily, liver functions closely monitored): undesirable side effects were not detected | patient's well being, strength and weight within two weeks ([2]; oral 2.5 milligrams three times daily, tablet): improved sense of well being, became stronger, and gained weight | patient's weight after therapy ([2]; oral 2.5 milligrams three times daily, increased from 115 pounds): 130 pounds | muscle protein synthesis (acute uremic rats): increased muscle protein synthesis | clinical improvement after administration (chronic renal failure): clinical improvement in appetite, cell mass, linear growth, and weight for height | urinary excretion of the administered dose ([3]; after 96 hours): approximately 65% | distribution half-life [3, 7]: approximately 30 minutes | elimination half-life [3, 7]: 9.4 h | absorption ([3]; man, oral 10 milligram dose): rapidly and completely absorbed | time of mean peak plasma concentration ([3]; man, oral 10 milligram dose): 66 min | protein binding ([3]; man): extensive | fecal excretion ([3]; over the same time period (96 hours)): less than 3% | form of excretion ([3]; taken orally): excreted mainly unchanged and unconjugated in urine | urinary excretion of an oral dose ([3]; within 72 hours after ingestion): approximately 35% | Biological T½ [4]: 9.4 hr | Glucuronidation [4]: Little | Metabolism [4]: Little | Oral Bioavailability [4]: 100% | Plasma Clearance [4]: 0.717 mL/min/kg | Tmax [4]: 1.1 h | Vd [4]: 0.578 L/kg | protein binding [4]: >95% | drug-related nephrotoxicity ([5]; daily doses up to 80 mg/day for four weeks and 40 mg/day for eight weeks): did not result in any drug-related nephrotoxicity | lymphocyte number ([5]; patients with severe alcoholic hepatitis): significantly improved lymphocyte number

C[C@]12C/C(=C/O)C(=O)C[C@@H]1CC[C@@H]1[C@@H]2CC[C@@]2(C)[C@H]1CC[C@]2(C)O [oxymethalone]
return to previous levels of function and strength [2]: did not return the patient to their previous levels of function and strength

C[C@]12Cc3c[nH]nc3C[C@@H]1CC[C@@H]1[C@@H]2CC[C@@]2(C)[C@H]1CC[C@]2(C)O [stanazol]
return to previous levels of function and strength [2]: did not return the patient to their previous levels of function and strength

C[C@]12C=CC(=O)C=C1CC[C@@H]1[C@@H]2C(=O)C[C@@]2(C)[C@H]1CC[C@]2(O)C(=O)CO [prednisone]
improvement of weakness ([2]; 60 mg daily): No significant improvement
